Results from patent publication US9133148B2, “Carbamate compounds and of making and using same” (Abide Therapeutics, Inc., priority 2012, dated 2015).

What was measured:
Format in all cases: biochemical
Settings in all cases: mouse brain membrane proteome
[1] = target: FAAH (Mus musculus (Mouse), UniProt O08914); test: In vitro competitive activity-based protein profiling (FP-Rh), mouse FAAH
Procedure: (§1) In Vitro Competitive Activity-Based Protein Profiling.
(§2) Proteomes (mouse brain membrane fraction or cell lysates) ([…], 1.0 mg/mL total protein concentration) were preincubated with varying concentrations of inhibitors at 37° C. After 30 min, FP-Rh (1.0 μL, 50 μM in DMSO) was added and the mixture was incubated for another 30 min at 37° C. Reactions were quenched with SDS loading buffer (50 μL—4×) and run on SDS-PAGE.

[2] = target: ABHD6 (Mus musculus (Mouse), UniProt Q8R2Y0); test: In vitro competitive activity-based protein profiling (FP-Rh), mouse ABHD6
Sequence of ABHD6 (Q8R2Y0 whole entry): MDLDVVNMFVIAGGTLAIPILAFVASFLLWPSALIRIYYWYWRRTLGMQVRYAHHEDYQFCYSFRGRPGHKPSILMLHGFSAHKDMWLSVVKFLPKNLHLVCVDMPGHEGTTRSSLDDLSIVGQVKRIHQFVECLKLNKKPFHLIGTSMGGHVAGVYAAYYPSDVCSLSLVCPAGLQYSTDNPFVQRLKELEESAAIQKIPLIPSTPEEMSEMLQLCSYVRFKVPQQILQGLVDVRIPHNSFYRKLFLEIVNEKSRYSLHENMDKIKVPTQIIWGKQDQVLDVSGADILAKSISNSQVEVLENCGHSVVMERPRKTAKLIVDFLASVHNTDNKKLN
Procedure: as §1, §2

[3] = target: MAGL (Mus musculus (Mouse), UniProt O35678); test: In vitro competitive activity-based protein profiling (FP-Rh), mouse MAGL
Sequence of MAGL (O35678 whole entry): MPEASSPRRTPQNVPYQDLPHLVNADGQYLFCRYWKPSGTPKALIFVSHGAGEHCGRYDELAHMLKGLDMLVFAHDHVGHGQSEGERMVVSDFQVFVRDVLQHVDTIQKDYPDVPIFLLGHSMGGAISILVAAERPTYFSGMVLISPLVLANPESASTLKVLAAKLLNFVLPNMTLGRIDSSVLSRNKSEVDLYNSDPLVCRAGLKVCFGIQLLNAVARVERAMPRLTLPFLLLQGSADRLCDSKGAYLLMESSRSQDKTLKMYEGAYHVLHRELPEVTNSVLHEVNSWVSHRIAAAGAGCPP
Procedure: as §1, §2

Sequence of FAAH (O08914 whole entry): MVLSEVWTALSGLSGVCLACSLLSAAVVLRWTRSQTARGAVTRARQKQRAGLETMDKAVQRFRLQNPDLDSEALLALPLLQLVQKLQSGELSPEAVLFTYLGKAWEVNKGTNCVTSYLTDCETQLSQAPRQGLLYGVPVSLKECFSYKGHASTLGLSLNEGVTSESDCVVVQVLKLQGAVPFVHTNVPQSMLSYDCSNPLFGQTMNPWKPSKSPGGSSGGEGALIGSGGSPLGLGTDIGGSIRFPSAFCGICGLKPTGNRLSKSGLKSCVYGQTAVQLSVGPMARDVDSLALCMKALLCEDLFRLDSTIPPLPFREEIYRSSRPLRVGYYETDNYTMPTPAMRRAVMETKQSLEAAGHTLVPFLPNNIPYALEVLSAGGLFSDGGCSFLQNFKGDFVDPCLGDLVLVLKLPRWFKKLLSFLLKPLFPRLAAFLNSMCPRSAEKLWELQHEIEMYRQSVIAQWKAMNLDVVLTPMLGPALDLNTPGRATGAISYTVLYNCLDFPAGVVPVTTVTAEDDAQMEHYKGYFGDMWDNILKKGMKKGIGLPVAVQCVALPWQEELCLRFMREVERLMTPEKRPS

IC50 ([1]; competitive ABPP) | IC50 ([1]; competitive ABPP (Table 7)) | IC50 ([3]; competitive ABPP (Table 7)) | SMILES | further results
> 10000 nM |  |  | O=C(OC(C(F)(F)F)C(F)(F)F)N1CCN(C(c2ccc(Cl)cc2)c2ccc(Cl)cc2)CC1 [Example 2b, 1,1,1,3,3,3-hexafluoropropan-2-yl 4-(bis(4-chlorophenyl)methyl)-piperazine-1-carboxylate] | 
> 10000 nM |  |  | O=C(OC(C(F)(F)F)C(F)(F)F)N1CCN(C(c2ccc(-c3ccccc3)cc2)c2ccc3c(c2)OCO3)CC1 (centres unmarked) [Example 2g] | IC50 ([3]; competitive ABPP): > 1000 nM; IC50 ([2]; competitive ABPP): > 1000 nM
> 6000 nM |  |  | O=C(OC(C(F)(F)F)C(F)(F)F)N1CCN(C(c2cocn2)c2cocn2)CC1 [Example 2i, 1,1,1,3,3,3-hexafluoropropan-2-yl 4-(bis(oxazol-4-yl)methyl)piperazine-1-carboxylate] | 
> 10000 nM |  |  | Cc1cc(Cl)ccc1C(c1ccc(Cl)cc1C)N1CCN(C(=O)OC(C(F)(F)F)C(F)(F)F)CC1 [Example 2j, 1,1,1,3,3,3-hexafluoropropan-2-yl 4-(bis(4-chloro-2-methylphenyl)methyl)piperazine-1-carboxylate] | IC50 ([2]; competitive ABPP): > 1000 nM
> 10000 nM |  |  | O=C(OC(C(F)(F)F)C(F)(F)F)N1CCN(C(c2cccnc2)c2cccnc2)CC1 [Example 2l, 1,1,1,3,3,3-hexafluoropropan-2-yl 4-(di(pyridin-3-yl)methyl)piperazine-1-carboxylate] | 
> 10000 nM |  |  | CC(C)(C)OC(=O)N1CCN(C(=O)OC(C(F)(F)F)C(F)(F)F)CC1 [Example 3d, 1-tert-butyl 4-(1,1,1,3,3,3-hexafluoropropan-2-yl)piperazine-1,4-dicarboxylate] | IC50 ([3]; competitive ABPP): > 1000 nM; IC50 ([2]; competitive ABPP): > 1000 nM
> 10000 nM |  |  | CN(Cc1cccc(-c2ccncc2)c1)C(=O)OC(C(F)(F)F)C(F)(F)F [Example 3f, 1,1,1,3,3,3-hexafluoropropan-2-yl methyl(3-(pyridin-4-yl)benzyl)-carbamate] | IC50 ([2]; competitive ABPP): 100 to 1000 nM
> 10000 nM |  |  | O=C(O)C(OC(=O)N1CCN(C(c2ccc(Cl)cc2)c2ccc(Cl)cc2)CC1)C(F)(F)F (centres unmarked) [Example 6i, 2-((4-(bis(4-chlorophenyl)methyl)piperazine-1-carbonyl)oxy)-3,3,3-trifluoropropanoic acid] | IC50 ([3]; competitive ABPP): > 1000 nM; IC50 ([2]; competitive ABPP): > 1000 nM
 | > 10000 nM | 100 to 1000 nM | O=C(OC(C(F)(F)F)C(F)(F)F)N1CCN(Cc2ccc(N3CCOCC3)cc2F)CC1 [Example 9a, 1,1,1,3,3,3-hexafluoropropan-2-yl 4-(2-fluoro-4-morpholinobenzyl)piperazine-1-carboxylate] | IC50 ([2]; competitive ABPP (Table 7)): 100 to 1000 nM
 | > 10000 nM | 100 to 1000 nM | O=C(OC(C(F)(F)F)C(F)(F)F)N1CCN(Cc2ccc(N3CCCC3)c(F)c2)CC1 [Example 9aa, 1,1,1,3,3,3-hexafluoropropan-2-yl 4-(3-fluoro-4-(pyrrolidin-1-yl)benzyl)piperazine-1-carboxylate] | IC50 ([2]; competitive ABPP (Table 7)): 100 to 1000 nM
 | > 10000 nM | 100 to 1000 nM | O=C(OC(C(F)(F)F)C(F)(F)F)N1CCN(Cc2ccc(N3CCCC3)cc2Cl)CC1 [Example 9ab, 1,1,1,3,3,3-hexafluoropropan-2-yl 4-[[2-chloro-4-(pyrrolidin-1-yl)phenyl]methyl]piperazine-1-carboxylate] | IC50 ([2]; competitive ABPP (Table 7)): > 1000 nM
 | > 10000 nM |  | O=C(OC(C(F)(F)F)C(F)(F)F)N1CCN(Cc2cccc(Cl)c2N2CCOCC2)CC1 [Example 9ad, 1,1,1,3,3,3-hexafluoropropan-2-yl 4-[[3-chloro-2-(morpholin-4-yl)phenyl]methyl]piperazine-1-carboxylate] | 
 | > 10000 nM | 100 to 1000 nM | O=C(OC(C(F)(F)F)C(F)(F)F)N1CCN(Cc2ccc(Cl)cc2-n2cccn2)CC1 [Example 9ae, 1,1,1,3,3,3-hexafluoropropan-2-yl 4-(4-chloro-2-(1H-pyrazol-1-yl)benzyl)piperazine-1-carboxylate] | IC50 ([2]; competitive ABPP (Table 7)): 100 to 1000 nM
 | > 10000 nM |  | O=C(OC(C(F)(F)F)C(F)(F)F)N1CCN(Cc2cc(Cl)ccc2N2CCOCC2)CC1 [Example 9ag, 1,1,1,3,3,3-hexafluoropropan-2-yl 4-[[5-chloro-2-(morpholin-4-yl)phenyl]methyl]piperazine-1-carboxylate] | IC50 ([2]; competitive ABPP (Table 7)): > 1000 nM
 | > 10000 nM | < 100 nM | O=C(OC(C(F)(F)F)C(F)(F)F)N1CCN(Cc2cccc(N3CCOCC3)c2)CC1 [Example 9ah, 1,1,1,3,3,3-hexafluoropropan-2-yl 4-(3-morpholinobenzyl)piperazine-1-carboxylate] | IC50 ([2]; competitive ABPP (Table 7)): < 100 nM
 | > 10000 nM |  | O=C(OC(C(F)(F)F)C(F)(F)F)N1CCN(Cc2ccc(C(F)(F)F)cc2N2CCCC2)CC1 [Example 9aq, 1,1,1,3,3,3-hexafluoropropan-2-yl 4-(2-(pyrrolidin-1-yl)-4-(trifluoromethyl)benzyl)piperazine-1-carboxylate] | 

IC50 ([1]; competitive ABPP) | IC50 ([1]; competitive ABPP (Table 7)) | IC50 ([3]; competitive ABPP (Table 7)) | SMILES | further results
 | > 10000 nM |  | O=C(OC(C(F)(F)F)C(F)(F)F)N1CCN(Cc2ccc(C(F)(F)F)cc2N2CCOCC2)CC1 [Example 9c, 1,1,1,3,3,3-hexafluoropropan-2-yl 4-[[2-(morpholin-4-yl)-4-(trifluoromethyl)phenyl]methyl]piperazine-1-carboxylate] | 
 |  | < 100 nM | Cc1cc(N2CCOCC2)ccc1CN1CCN(C(=O)OC(C(F)(F)F)C(F)(F)F)CC1 [Example 9p, 1,1,1,3,3,3-hexafluoropropan-2-yl 4-(2-methyl-4-morpholinobenzyl)piperazine-1-carboxylate] | 
 |  | 100 to 1000 nM | O=C(OC(C(F)(F)F)C(F)(F)F)N1CCN(Cc2ccc(Br)cc2N2CCCCC2)CC1 [Example 9q, 1,1,1,3,3,3-hexafluoropropan-2-yl 4-(4-bromo-2-(piperidin-1-yl)benzyl)piperazine-1-carboxylate] | 
 |  | < 100 nM | O=C(OC(C(F)(F)F)C(F)(F)F)N1CCN(Cc2ccc(Br)cc2N2CCOCC2)CC1 [Example 9r, 1,1,1,3,3,3-hexafluoropropan-2-yl 4-(4-bromo-2-morpholinobenzyl)piperazine-1-carboxylate] | 
 | > 6250 nM |  | O=C(OC(C(F)(F)F)C(F)(F)F)N1CCN(Cc2ccc(Cl)cc2N2CCOCC2)CC1 [Example 9t, 1,1,1,3,3,3-hexafluoropropan-2-yl 4-(4-chloro-2-morpholinobenzyl)piperazine-1-carboxylate] | 
 | > 250 nM |  | O=C(OC(C(F)(F)F)C(F)(F)F)N1CCN(Cc2ccc(Br)cc2N2CCCC2)CC1 [Example 9x, 1,1,1,3,3,3-hexafluoropropan-2-yl 4-(4-bromo-2-(pyrrolidin-1-yl)benzyl)piperazine-1-carboxylate] | 
 | > 250 nM | < 100 nM | O=C(OC(C(F)(F)F)C(F)(F)F)N1CCN(Cc2ccccc2N2CCOCC2)CC1 [Example 9y, 1,1,1,3,3,3-hexafluoropropan-2-yl 4-(2-morpholinobenzyl)piperazine-1-carboxylate] | 
 | > 10000 nM |  | O=C(OC(C(F)(F)F)C(F)(F)F)N1CCN(Cc2ccc(Cl)cc2N2CCCC2)CC1 [Example 9z, 1,1,1,3,3,3-hexafluoropropan-2-yl 4-(4-chloro-2-(pyrrolidin-1-yl)benzyl)piperazine-1-carboxylate] | 
 |  | 100 to 1000 nM | O=C(OC(C(F)(F)F)C(F)(F)F)N1CCN(Cc2cc(-c3ccccc3)on2)CC1 [Example 10b, 1,1,1,3,3,3-hexafluoropropan-2-yl 4-((5-phenylisoxazol-3-yl)methyl)piperazine-1-carboxylate] | 
 | > 6250 nM |  | Cc1nn(-c2ccccc2)cc1CN1CCN(C(=O)OC(C(F)(F)F)C(F)(F)F)CC1 [Example 10c, 1,1,1,3,3,3-hexafluoropropan-2-yl 4-((3-methyl-1-phenyl-1H-pyrazol-4-yl)methyl)piperazine-1-carboxylate] | 
 | > 10000 nM |  | Cn1nc(-c2ccccc2)cc1CN1CCN(C(=O)OC(C(F)(F)F)C(F)(F)F)CC1 [Example 10d, 1,1,1,3,3,3-hexafluoropropan-2-yl 4-((1-methyl-3-phenyl-1H-pyrazol-5-yl)methyl)piperazine-1-carboxylate] | 
 | > 10000 nM |  | Cn1cc(CN2CCN(C(=O)OC(C(F)(F)F)C(F)(F)F)CC2)c(-c2ccccc2)n1 [Example 10e, 1,1,1,3,3,3-hexafluoropropan-2-yl 4-((1-methyl-3-phenyl-1H-pyrazol-4-yl)methyl)piperazine-1-carboxylate] | 
 |  | 100 to 1000 nM | Cn1ncc(Br)c1CN1CCN(C(=O)OC(C(F)(F)F)C(F)(F)F)CC1 [Example 10f, 1,1,1,3,3,3-hexafluoropropan-2-yl 4-((4-bromo-1-methyl-1H-pyrazol-5-yl)methyl)piperazine-1-carboxylate] | 
 |  | > 1000 nM | O=C(OC(C(F)(F)F)C(F)(F)F)N1CCN(Cc2ccc(-c3ccccc3)cc2N2CCOCC2)CC1 [Example 11f, 1,1,1,3,3,3-hexafluoropropan-2-yl 4-((3-morpholino-[1,1′-biphenyl]-4-yl)methyl)piperazine-1-carboxylate] | 
 | > 10000 nM |  | Cn1cc(CN2CCN(C(=O)OC(C(F)(F)F)C(F)(F)F)CC2)c(-c2ccccc2Cl)n1 [l0g, 1,1,1,3,3,3-hexafluoropropan-2-yl 4-[[3-(2-chlorophenyl)-1-methyl-1H-pyrazol-4-yl]methyl]piperazine-1-carboxylate] | 

SMILES | IC50 ([1]; competitive ABPP) | IC50 ([1]; competitive ABPP (Table 7)) | IC50 ([3]; competitive ABPP (Table 7)) | further results
O=C(Oc1ccc([N+](=O)[O-])cc1)N1CCC(C(O)(c2ccc3c(c2)OCO3)c2ccc3c(c2)OCO3)CC1 [A, 4-nitrophenyl 4-(dibenzo[d][1,3]dioxol-5-yl(hydroxy)methyl)piperidine-1-carboxylate, reference compound] | 4700 nM |  |  | IC50 ([2]; competitive ABPP): 100 to 1000 nM
COC(=O)C(OC(=O)N(C)CCc1ccccc1)C(F)(F)F (centres unmarked) [Example 7k, Methyl 3,3,3-trifluoro-2-((methyl(phenethyl)carbamoyl)oxy)propanoate] | > 10000 nM |  |  | IC50 ([3]; competitive ABPP): > 1000 nM; IC50 ([2]; competitive ABPP): > 1000 nM
